What follows are compounds tested against human activated kallikrein enzyme (Homo sapiens, UniProt P03952) (assay: Plasma kallikrein inhibition, fluorogenic PFR-AMC substrate, 500 pM activated kallikrein format). Conditions: 500 pM activated kallikrein, 300 uM PFR-AMC, 30 min preincubation, 10 min reaction; read-out: Primary Dose Response Assay: Average EC50.
Sequence of human activated kallikrein enzyme (P03952 391-638 limits assumed): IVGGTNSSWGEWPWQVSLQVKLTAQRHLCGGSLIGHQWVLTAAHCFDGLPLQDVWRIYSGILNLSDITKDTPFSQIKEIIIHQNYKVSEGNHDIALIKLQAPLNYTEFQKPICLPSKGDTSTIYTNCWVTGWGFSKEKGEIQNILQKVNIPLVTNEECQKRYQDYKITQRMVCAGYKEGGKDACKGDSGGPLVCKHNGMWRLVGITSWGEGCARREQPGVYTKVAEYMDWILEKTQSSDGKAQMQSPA
Sequence of human activated kallikrein enzyme (P03952 20-390 partner limits assumed): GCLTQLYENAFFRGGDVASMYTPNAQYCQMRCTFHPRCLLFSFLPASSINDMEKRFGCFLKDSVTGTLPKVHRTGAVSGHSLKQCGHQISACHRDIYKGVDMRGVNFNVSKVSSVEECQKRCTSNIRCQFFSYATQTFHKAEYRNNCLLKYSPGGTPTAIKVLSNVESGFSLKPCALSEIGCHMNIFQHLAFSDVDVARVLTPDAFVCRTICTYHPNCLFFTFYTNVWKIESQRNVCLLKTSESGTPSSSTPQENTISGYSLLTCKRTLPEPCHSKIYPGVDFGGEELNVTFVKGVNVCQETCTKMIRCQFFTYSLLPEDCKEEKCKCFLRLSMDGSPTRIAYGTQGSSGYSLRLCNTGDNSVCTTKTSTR
Assay type: biochemical
Procedure, shortened: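 Enzyme (500 pM) was preincubated with inhibitor for 30 min at room temperature in 20 mM Tris pH 7.5, 1 mM EDTA, 150 mM NaCl, 0.1% PEG-400 and 0.1% Triton X-100. The reaction was started with 300 uM PFR-AMC, run 10 min, and fluorescence read at 460 nm (380 nm excitation). EC50 derived.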
`Cc1cc(NC(=O)[C@H]2C[C@@H]2c2nccc(C)n2)cc(N[C@H](C)c2cn3cc(C4CC4)cc(N4CC(=O)N(C)C4=O)c3n2)n1` [Example I-246, (1S,2S)-N-(2-(((R)-1-(6-cyclopropyl-8-(3-methyl-2,4-dioxoimidazolidin-1-yl)imidazo[1,2-a]pyridin-2-yl)ethyl)amino)-6-methylpyridin-4-yl)-2-(4-methylpyrimidin-2-yl)cyclopropane-1-carboxamide] showed an EC50 of less than 1 nM. `O=C(Nc1cc(NCc2cn3cc(Cl)ccc3n2)ncn1)[C@H]1C[C@@H]1c1cccc(Cl)c1` [Example I-203, (1S,2S)-N-(6-(((6-chloroimidazo[1,2-a]pyridin-2-yl)methyl)amino)pyrimidin-4-yl)-2-(3-chlorophenyl)cyclopropane-1-carboxamide] was tested, and the EC50 was 10 to 100 nM. For `O=C(Nc1nccc(NCc2cn3cc(C4CC4)ccc3n2)n1)[C@H]1C[C@@H]1c1cccc(Cl)c1` (racemic) [Example 346, (rac-(1S*,2S*))-2-(3-chlorophenyl)-N-(4-(((6-cyclopropylimidazo[1,2-a]pyridin-2-yl)methyl)amino)pyrimidin-2-yl)cyclopropane-1-carboxamide], the EC50 was 1 to 10 nM. For `Cc1ccnc([C@H]2C[C@@H]2C(=O)Nc2ncc(CO)c(OCc3cn4cc(C5CC5)cc(N5CC(=O)N(C)C5=O)c4n3)n2)n1` [Example 664, (1S,2S)—N-(4-((6-cyclopropyl-8-(3-methyl-2,4-dioxoimidazolidin-1-yl)imidazo[1,2-a]pyridin-2-yl)methoxy)-5-(hydroxymethyl)pyrimidin-2-yl)-2-(4-methylpyrimidin-2-yl)cyclopropane-1-carboxamide], the EC50 was less than 1 nM. Compound `CC(C)(C)OC(=O)Nc1cc(Cl)cc([C@H]2C[C@@H]2C(=O)Nc2cc(NCc3cn4cc(C5CC5)ccc4n3)ncn2)c1` (racemic) [Example I-189, rac-tert-butyl (3-chloro-5-((1S*,2S*)-2-((6-(((6-cyclopropylimidazo[1,2-a]pyridin-2-yl)methyl)amino)pyrimidin-4-yl)carbamoyl)cyclopropyl)phenyl)carbamate] has an EC50 greater than 6000 nM. Compound `COc1ccnc([C@H]2C[C@@H]2C(=O)Nc2cc(NCc3cn4cc(C5CC5)ccc4n3)ncn2)c1` (racemic) [Example I-204, rac-(1S*,2S*)-N-(6-(((6-cyclopropylimidazo[1,2-a]pyridin-2-yl)methyl)amino)pyrimidin-4-yl)-2-(4-methoxypyridin-2-yl)cyclopropane-1-carboxamide] has an EC50 of 100 to 1000 nM. With `N#Cc1ccc(Cl)cc1C1CC1C(=O)Nc1cc(NCc2cn3cc(C4CC4)cc(N4CCCC4=O)c3n2)ncn1` (centres unmarked) [Example 335] the EC50 was 100 to 1000 nM. In the case of `O=C(Nc1cc(NCc2cn3cc(C4CC4)cc(N4CCN5CC(F)(F)CC5C4)c3n2)ncn1)[C@H]1C[C@@H]1c1cccc(Cl)c1` (stereo partly drawn) [Example I-197, (1S,2S)-2-(3-chlorophenyl)-N-(6-(((6-cyclopropyl-8-(7,7-difluorohexahydropyrrolo[1,2-a]pyrazin-2(1H)-yl)imidazo[1,2-a]pyridin-2-yl)methyl)amino)pyrimidin-4-yl)cyclopropane-1-carboxamide], the EC50 is reported as 10 to 100 nM. Compound `N#Cc1ccc(Cl)cc1[C@H]1C[C@@H]1C(=O)Nc1cc(C(O)c2cn3cc(C4CC4)ccc3n2)ncn1` (relative stereo) [Example 352, rac-(1S*,2S*)-2-(5-chloro-2-cyanophenyl)-N-(6-((6-cyclopropylimidazo[1,2-a]pyridin-2-yl)(hydroxy)methyl)pyrimidin-4-yl)cyclopropane-1-carboxamide] has an EC50 of 10 to 100 nM. Compound `O=C(Nc1ncncc1OCc1cn2cc(C3CC3)ccc2n1)[C@H]1C[C@@H]1c1cccc(Cl)c1` [Example 596, (1S,2S)-2-(3-chlorophenyl)-N-(5-((6-cyclopropylimidazo[1,2-a]pyridin-2-yl)methoxy)pyrimidin-4-yl)cyclopropane-1-carboxamide] has an EC50 of 10 to 100 nM. `Cc1ccnc([C@H]2C[C@@H]2C(=O)Nc2ncnc3nn(Cc4cn5cc(C6CC6)cc(N6CC(=O)N(C)C6=O)c5n4)cc23)n1` (single isomer, unassigned) [Example I-633, rac-(1S*,2S*)—N-(2-((6-cyclopropyl-8-(3-methyl-2,4-dioxoimidazolidin-1-yl)imidazo[1,2-a]pyridin-2-yl)methyl)-2H-pyrazolo[3,4-d]pyrimidin-4-yl)-2-(4-methylpyrimidin-2-yl)cyclopropane-1-carboxamide] gave an EC50 of 100 to 1000 nM. `CNc1nnc(NC(=O)[C@H]2C[C@@H]2c2nccc(C)n2)cc1OCc1cn2cc(C3CC3)cc(N3CC(=O)N(C)C3=O)c2n1` [Example 670, (1S,2S)—N-(5-((6-cyclopropyl-8-(3-methyl-2,4-dioxoimidazolidin-1-yl)imidazo[1,2-a]pyridin-2-yl)methoxy)-6-(methylamino)pyridazin-3-yl)-2-(4-methylpyrimidin-2-yl)cyclopropane-1-carboxamide] was tested, and the EC50 was less than 1 nM. `CSc1nc(NCc2cn3cc(C4CC4)ccc3n2)cc(NC(=O)[C@@H]2C[C@H]2c2cccc(Cl)c2)n1` (racemic) [Example 106, rac-(1S*,2S*)-2-(3-chlorophenyl)-N-(6-(((6-cyclopropylimidazo[1,2-a]pyridin-2-yl)methyl)amino)-2-(methylthio)pyrimidin-4-yl)cyclopropane-1-carboxamide] showed an EC50 of 100 to 1000 nM. Compound `O=C(Nc1cc(NCc2cn3cc(C4CC4)cc(N4CCC(O)CC4)c3n2)ncn1)[C@H]1C[C@@H]1c1cccc(Cl)c1` (stereo in doubt) [Example I-3, (1S,2S)-2-(3-chlorophenyl)-N-(6-(((6-cyclopropyl-8-(4-hydroxypiperidin-1-yl)imidazo[1,2-a]pyridin-2-yl)methyl)amino)pyrimidin-4-yl)cyclopropane-1-carboxamide] has an EC50 of 1 to 10 nM. For `Cc1ccnc([C@H]2C[C@@H]2C(=O)Nc2cccc(NCc3cn4cc(C5CC5)cc(N5CC(=O)N(C)C5=O)c4n3)c2)n1` [Example I-644, (1S,2S)—N-(3-(((6-cyclopropyl-8-(3-methyl-2,4-dioxoimidazolidin-1-yl)imidazo[1,2-a]pyridin-2-yl)methyl)amino)phenyl)-2-(4-methylpyrimidin-2-yl)cyclopropane-1-carboxamide], the EC50 was less than 1 nM. `O=C(Nc1cc(NCc2cn3cc(C4CC4)ccc3n2)ncn1)[C@H]1C[C@@H]1c1ccc(Cl)s1` (racemic) [Example I-185, rac-(1S*,2S*)-2-(5-chlorothiophen-2-yl)-N-(6-(((6-cyclopropylimidazo[1,2-a]pyridin-2-yl)methyl)amino)pyrimidin-4-yl)cyclopropane-1-carboxamide] was tested, and the EC50 was 100 to 1000 nM. Work on `CC1OCCN(c2cc(C3CC3)cn3cc(CNc4cc(NC(=O)[C@H]5C[C@@H]5c5cccc(Cl)c5)ncn4)nc23)C1=O` (relative stereo) [Example 68, rac-(1S*,2S*)-2-(3-chlorophenyl)-N-(6-(((6-cyclopropyl-8-(2-methyl-3-oxomorpholino)imidazo[1,2-α]pyridin-2-yl)methyl)amino)pyrimidin-4-yl)cyclopropane-1-carboxamide] yielded an EC50 of 1 to 10 nM. Work on `O=C(Nc1cc(NCc2cn3cc(C4CC4)cc(N4CCN(CC(F)(F)F)CC4)c3n2)ccn1)[C@H]1C[C@@H]1c1cccc(Cl)c1` (racemic) [Example I-20] yielded an EC50 of 1 to 10 nM. Work on `N#CC1(c2cccc(Cl)c2)CC1C(=O)Nc1cc(NCc2cn3cc(C4CC4)ccc3n2)ncn1` (centres unmarked) [Example 349, 2-(3-chlorophenyl)-2-cyano-N-(6-(((6-cyclopropylimidazo[1,2-a]pyridin-2-yl)methyl)amino)pyrimidin-4-yl)cyclopropane-1-carboxamide] yielded an EC50 greater than 6000 nM. Work on `Cc1ccnc([C@H]2C[C@@H]2C(=O)Nc2cc(N[C@H](C)c3cn4cc(C5CC5)cc(N5CC(=O)NC5=O)c4n3)ncn2)n1` [Example 533, (1S,2S)-N-(6-(((R)-1-(6-cyclopropyl-8-(2,4-dioxoimidazolidin-1-yl)imidazo[1,2-a]pyridin-2-yl)ethyl)amino)pyrimidin-4-yl)-2-(4-methylpyrimidin-2-yl)cyclopropane-1-carboxamide] yielded an EC50 of less than 1 nM. `O=C(Nc1cc(NCc2cn3cc(C4CC4)ccc3n2)ncn1)[C@H]1C[C@@H]1c1cc(Cl)ccn1` (single isomer, unassigned) [Example I-266, rac-(1S*,2S*)-2-(4-chloropyridin-2-yl)-N-(6-(((6-cyclopropylimidazo[1,2-a]pyridin-2-yl)methyl)amino)pyrimidin-4-yl)cyclopropane-1-carboxamide] gave an EC50 of 100 to 1000 nM. `O=C(Nc1cc(NCc2cn3cc(C4CC4)ccc3n2)ncn1)[C@@H]1[C@@H](c2cccc(Cl)c2)C1(F)F` (racemic) [Example 503, rac-(1S*,3S*)-3-(3-chlorophenyl)-N-(6-(((6-cyclopropylimidazo[1,2-a]pyridin-2-yl)methyl)amino)pyrimidin-4-yl)-2,2-difluorocyclopropane-1-carboxamide] was tested, and the EC50 was 1 to 10 nM. Work on `COc1ccc(Cl)cc1[C@H]1C[C@@H]1C(=O)Nc1cc(NCc2cn3cc(C4CC4)ccc3n2)ncn1` (racemic) [Example 47, rac-(1S*,2S*)-2-(5-chloro-2-methoxyphenyl)-N-(6-(((6-cyclopropylimidazo[1,2-a]pyridin-2-yl)methyl)amino)pyrimidin-4-yl)cyclopropane-1-carboxamide] yielded an EC50 of 100 to 1000 nM. `O=C(Nc1cc(NCc2cn3cc(C4CC4)ccc3n2)ncn1)[C@H]1C[C@@H]1c1cccc(Br)c1` (racemic) [Example 54, rac-(1S*,2S*)-2-(3-bromophenyl)-N-(6-(((6-cyclopropylimidazo[1,2-a]pyridin-2-yl)methyl)amino)pyrimidin-4-yl)cyclopropane-1-carboxamide] was tested, and the EC50 was 10 to 100 nM. `Cc1ccnc([C@@H]2C[C@H]2C(=O)Nc2cc(NCc3cn4cc(C5CC5)cc(N5CC(=O)N(C)C5=O)c4n3)ncn2)n1` (single isomer, unassigned) [Example I-261] gave an EC50 of 10 to 100 nM.

Same assay, conditions: comparative compounds, 500 pM activated kallikrein format; read-out: Primary Dose Response Assay: Average EC50
In the case of `O=c1ccc(NCc2cn3cc(C4CC4)ccc3n2)cn1NC[C@H]1C[C@@H]1c1cccc(Cl)c1`, the EC50 is reported as 1000 to 6000 nM.
